“Also recorded” adds a separate entry of the source.

As a reminder, the Vmax is the top rate of the reaction or transport when substrate is in excess. As a reminder, the Km is the concentration of substrate that gives half-maximal velocity.

Assay [1] addresses T1, purified recombinant mouse Nmnat (Mus musculus, UniProt Q9EPA7).
T1 construct: the purified full-length His-tagged Nampt and Nmnat recombinant proteins; made in house; host or cells: E. coli BL21(DE3)pLysS
Nature of the assay: enzyme-coupled fluorometric assay, kinetic parameters for Nmnat. It is filed as biochemical. The conditions noted are these: substrate of Nmnat. On the procedure: (§1) Enzymatic activities of recombinant Nampt and Nmnat proteins were measured by an enzyme-coupled fluorometric assay (see e.g. FIG. 2A). In this enzyme-coupled reaction, NAD is converted to NADH by alcohol dehydrogenase, and the fluorescence of NADH is detected in a fluorometer. To establish this assay system, optimal reaction conditions for Nmnat were initially examined by varying ATP and Mg^2+ concentrations and pH of the reaction buffer. The resultant reaction buffer for Nmnat contained 50 mM HEPES [pH 7.4], 0.02% BSA, 12 mM MgCl2, 2 mM ATP, 1.5% ethanol, and 30 μg/ml alcohol dehydrogenase to convert NAD to NADH. To determine the kinetic parameters for Nmnat, 30 ng of purified His-tagged Nmnat and varying concentrations of NMN were added to 1 ml of the reaction buffer. The reactions were run at 37° C. and quenched at six time points by the addition of 250 μl of 0.5 M EDTA. The production of NADH was measured by excitation at 340 nm and emission at 460 nm in a fluorometer. […] NADH production was measured continuously in a fluorometer.

Assay [2] has as its target T2, purified recombinant mouse Nampt (Mus musculus, UniProt Q99KQ4).
T2 construct: the purified full-length His-tagged Nampt and Nmnat recombinant proteins; made in house; host or cells: E. coli BL21(DE3)pLysS
The assay is described as follows: enzyme-coupled fluorometric assay, kinetic characterization of Nampt. The conditions noted are these: substrate of Nampt. The format is biochemical. On the procedure:
as §1

Assay [3] concerns the target GAL4 DBD fused to the Sir2α catalytic core domain (GAL4 DBD-mCORE) (Mus musculus, UniProt Q923E4). The note with it: 5 mM, added 24 h after transfection, NIH3T3 cells.
Procedure: A reporter gene transcription assay using a GAL4 DNA binding domain (GAL4 DBD) fusion system was developed to monitor the transcriptional regulatory activity of the mouse Sir2 ortholog, Sir2α. […] This assay system used the GAL4 DBD fused to the Sir2α catalytic core domain (GAL4 DBD-mCORE) and a luciferase reporter that has a thymidine kinase minimal promoter and four GAL4 binding sites.
For the luciferase assay, 1.2×10^5 NIH3T3 cells were plated in 6 cm dishes. 24 h after plating, cells were transfected for 3 h with 380 ng of pUAS4tk-luc as a reporter, 1.5 μg of pM or pM-GAL4 DBD-mCORE as an effector, and 38 ng of pRL-SV40 (Promega, Wis.) as a normalization control by using Superfect (Qiagen). Transfectants were harvested 48 h after transfection, and luciferase activity was measured with the Dual-Luciferase Reporter Assay System (Promega, Wis.) and a SIRIUS luminometer (Berthold Detection Systems, Germany) according to the manufacturers' protocols. Background luminescence was subtracted and was always less than 1% of measured values. Transfection efficiencies were normalized based on Renilla luciferase activities. […] To examine the effects of Nampt and Nmnat on the transcriptional repressive activity of GAL4 DBD-mCORE, NIH3T3 cells were co-transfected with indicated amounts of Nampt and Nmnat expression vectors along with reporter, effector and normalization control plasmids.
Another assay concerns NIH3T3 cells. The assay is described as follows: total cellular NAD levels by HPLC in NIH3T3 cells. It is filed as cell-based, mouse. The conditions noted are these: 5 mM added to the medium. On the procedure:
Total cellular levels of NAD was measured in the NIH3T3 cell lines overexpressing the untagged enzymes. High performance liquid chromatography was used to measure NAD (Neubert et al., Biochim. Biophys. Acta. (1964) 92, 610-612; Emanuelli et al., J. Chromatogr. (1996) B. 676, 13-18). Briefly, 5×10^5 cells were plated in 6 cm dishes and harvested 48 h later in 800 μl of ice-cold PBS. Cells were then spun down and lysed with 300 μl of 1 M HClO4 on ice for 10 min. Lysates were cleared by centrifugating at 4° C. at 18,000 g for 5 minutes. Cleared lysates (240 μl) were neutralized by adding 80 μl of 3M K2CO3 and incubating on ice for 10 minutes. After centrifuging for 10 min, 100 μl of the supernatant were mixed with 400 μl of Buffer A and loaded onto the column. The HPLC was run at a flow rate of 1 ml/min with 100% Buffer A from 0 to 5 min, a linear gradient to 95% Buffer A and 5% Buffer B (100% methanol) from 5 to 6 min, 95% Buffer A and 5% Buffer B from 6 to 11 min, a linear gradient to 85% Buffer A and 15% Buffer B from 11 to 13 min, 85% Buffer A and 15% Buffer B from 13 to 23 min, and a linear gradient to 100% Buffer A from 23 to 24 min. NAD was eluted as a sharp peak at 22 min. The amount of NAD was quantitated based on the peak area compared to a standard curve.

T1 sequence (Q9EPA7 whole entry): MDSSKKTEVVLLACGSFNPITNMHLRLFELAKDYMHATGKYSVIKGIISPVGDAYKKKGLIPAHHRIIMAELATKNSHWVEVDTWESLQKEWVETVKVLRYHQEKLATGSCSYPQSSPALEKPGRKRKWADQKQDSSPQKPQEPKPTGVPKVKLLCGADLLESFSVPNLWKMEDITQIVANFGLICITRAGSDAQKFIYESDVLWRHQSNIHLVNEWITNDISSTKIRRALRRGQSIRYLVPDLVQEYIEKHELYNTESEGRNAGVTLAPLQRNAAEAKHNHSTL
T2 sequence (Q99KQ4 whole entry): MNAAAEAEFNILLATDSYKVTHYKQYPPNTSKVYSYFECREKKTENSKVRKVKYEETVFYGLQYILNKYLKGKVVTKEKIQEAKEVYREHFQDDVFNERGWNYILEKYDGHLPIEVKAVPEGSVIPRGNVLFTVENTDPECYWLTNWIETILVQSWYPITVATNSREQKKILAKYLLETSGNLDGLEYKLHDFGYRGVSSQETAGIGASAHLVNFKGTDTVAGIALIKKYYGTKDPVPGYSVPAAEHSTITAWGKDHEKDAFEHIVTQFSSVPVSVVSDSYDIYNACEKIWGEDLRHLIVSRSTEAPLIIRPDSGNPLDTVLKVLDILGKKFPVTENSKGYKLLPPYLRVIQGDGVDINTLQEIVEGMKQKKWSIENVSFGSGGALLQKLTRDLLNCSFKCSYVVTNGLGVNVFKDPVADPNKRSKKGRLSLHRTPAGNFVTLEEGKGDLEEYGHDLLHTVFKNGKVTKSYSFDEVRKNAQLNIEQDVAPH
Chain of GAL4 DBD fused to the Sir2α catalytic core domain (GAL4 DBD-mCORE) (Q923E4 with tags, fused parts or gaps): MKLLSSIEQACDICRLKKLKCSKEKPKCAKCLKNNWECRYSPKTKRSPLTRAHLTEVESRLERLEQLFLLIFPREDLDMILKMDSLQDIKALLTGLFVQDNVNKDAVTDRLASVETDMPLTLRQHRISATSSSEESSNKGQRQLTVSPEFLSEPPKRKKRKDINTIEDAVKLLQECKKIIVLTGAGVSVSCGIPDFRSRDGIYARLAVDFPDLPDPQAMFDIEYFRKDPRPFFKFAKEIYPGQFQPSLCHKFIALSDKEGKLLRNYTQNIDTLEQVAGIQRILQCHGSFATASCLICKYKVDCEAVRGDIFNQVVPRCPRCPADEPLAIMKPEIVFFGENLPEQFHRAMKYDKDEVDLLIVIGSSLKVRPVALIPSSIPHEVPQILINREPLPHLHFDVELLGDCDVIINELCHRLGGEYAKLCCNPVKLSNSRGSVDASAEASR

Turning to `NC(=O)c1ccc[n+]([C@@H]2O[C@H](COP(=O)([O-])O)[C@@H](O)[C@H]2O)c1` [NMN, nicotinamide mononucleotide], in assay [1], the Kcat was 20.0 s⁻¹ and the Vmax turned out to be 34.1 µmol/min/mg. In addition, the Km in assay [1] (37° C., pH 7.4) worked out at 20.1 µM.
On to `NC(=O)c1cccnc1` [Nicotinamide, 3-pyridinecarboxamide], for which, in assay [2], the Kcat amounted to 0.020 s⁻¹ and the Vmax turned out to be 0.021 µmol/min/mg. For the same molecule, the “effect on transcriptional repressive activity of GAL4 DBD-mCORE” value in assay [3] is on record as “abolished”. In addition, the “effect on total cellular NAD” value with NIH3T3 cells is on record as “did not increase NAD; also recorded: unable to increase NAD”.
For `O=C(O)c1cccnc1` [nicotinic acid], the “effect on transcriptional repressive activity of GAL4 DBD-mCORE” value in assay [3] was “not”.

(Values after US8268575B2, “NAD biosynthesis systems” (Washington University, priority 2004, dated 2012).)
